Patent US20240246967A1, “AXL COMPOUNDS” (ARCUS BIOSCIENCES, INC., priority 2021, published 2024)

Columns and labels:
human MER = molecular target: T1, human MER (Homo sapiens, UniProt Q12866); experiment: HTRF KinEASE-TK biochemical potency assay, MER; conditions: 1 nM MER, 700 μM ATP, 800 nM TK Substrate-biotin
T1 construct: purchased Invitrogen
T1 sequence (Q12866 21-999): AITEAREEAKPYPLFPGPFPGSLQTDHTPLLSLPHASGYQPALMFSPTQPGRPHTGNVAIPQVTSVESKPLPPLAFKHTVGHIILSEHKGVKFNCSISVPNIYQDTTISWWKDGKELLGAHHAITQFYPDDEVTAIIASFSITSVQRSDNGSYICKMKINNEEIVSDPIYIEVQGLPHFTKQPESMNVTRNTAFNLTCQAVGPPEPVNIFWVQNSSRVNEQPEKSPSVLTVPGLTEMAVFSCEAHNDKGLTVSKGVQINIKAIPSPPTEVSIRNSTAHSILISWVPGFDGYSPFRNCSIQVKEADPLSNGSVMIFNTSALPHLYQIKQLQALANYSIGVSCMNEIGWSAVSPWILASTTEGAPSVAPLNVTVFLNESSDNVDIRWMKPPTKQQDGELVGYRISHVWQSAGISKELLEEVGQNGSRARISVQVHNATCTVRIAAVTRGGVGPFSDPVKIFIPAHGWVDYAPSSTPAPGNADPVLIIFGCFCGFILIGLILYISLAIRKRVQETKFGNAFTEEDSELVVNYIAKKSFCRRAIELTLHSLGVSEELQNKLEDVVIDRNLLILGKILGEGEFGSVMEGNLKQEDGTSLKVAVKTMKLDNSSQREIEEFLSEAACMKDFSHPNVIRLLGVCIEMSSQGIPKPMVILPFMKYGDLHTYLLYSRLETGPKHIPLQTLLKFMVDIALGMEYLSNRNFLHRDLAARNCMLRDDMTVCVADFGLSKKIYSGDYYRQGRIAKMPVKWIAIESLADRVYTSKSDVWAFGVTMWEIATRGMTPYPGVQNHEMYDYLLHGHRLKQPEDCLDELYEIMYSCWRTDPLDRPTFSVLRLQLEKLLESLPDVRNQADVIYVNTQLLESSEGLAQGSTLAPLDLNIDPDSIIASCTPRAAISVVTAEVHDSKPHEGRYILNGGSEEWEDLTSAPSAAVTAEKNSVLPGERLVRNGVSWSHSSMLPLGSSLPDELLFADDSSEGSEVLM
Outline: (§1)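 Enzyme (final 5 nM AXL; 1 nM TYRO3 or MER) plus compound, 1 h RT → add biotinylated TK substrate (800 nM final) and ATP (700 μM final) → 2 h RT → stop into HTRF detection mix → read 665/620 nm. Activity normalised to DMSO and pre-stopped blanks.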

human TYRO3 = molecular target: T2, human TYRO3 (Homo sapiens, UniProt Q06418); experiment: HTRF KinEASE-TK biochemical potency assay, TYRO3; conditions: 1 nM TYRO3, 700 μM ATP, 800 nM TK Substrate-biotin
T2 construct: purchased Invitrogen
T2 sequence (Q06418 41-890): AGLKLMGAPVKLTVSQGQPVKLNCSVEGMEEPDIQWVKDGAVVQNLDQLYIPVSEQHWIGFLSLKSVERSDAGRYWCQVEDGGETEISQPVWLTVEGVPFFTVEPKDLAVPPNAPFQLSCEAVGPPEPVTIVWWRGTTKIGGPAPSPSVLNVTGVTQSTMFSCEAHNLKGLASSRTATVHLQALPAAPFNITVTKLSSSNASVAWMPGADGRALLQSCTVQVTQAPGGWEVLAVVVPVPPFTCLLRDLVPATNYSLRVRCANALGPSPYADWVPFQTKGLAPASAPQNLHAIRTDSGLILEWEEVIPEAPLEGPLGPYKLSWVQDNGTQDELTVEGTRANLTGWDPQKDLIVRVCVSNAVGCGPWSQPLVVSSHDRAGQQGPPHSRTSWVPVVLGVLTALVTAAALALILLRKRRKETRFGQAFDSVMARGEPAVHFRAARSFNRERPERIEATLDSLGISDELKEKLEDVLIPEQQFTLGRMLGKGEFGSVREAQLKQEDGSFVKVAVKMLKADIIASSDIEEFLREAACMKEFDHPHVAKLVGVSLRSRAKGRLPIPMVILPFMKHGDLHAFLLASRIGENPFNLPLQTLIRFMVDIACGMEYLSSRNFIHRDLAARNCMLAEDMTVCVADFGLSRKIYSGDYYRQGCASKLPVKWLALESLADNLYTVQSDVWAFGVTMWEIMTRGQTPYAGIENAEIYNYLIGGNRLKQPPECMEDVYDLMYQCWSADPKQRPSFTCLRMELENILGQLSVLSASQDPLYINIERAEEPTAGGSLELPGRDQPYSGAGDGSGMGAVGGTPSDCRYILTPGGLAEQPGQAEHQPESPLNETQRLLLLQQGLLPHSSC
Outline: as §1

IC50 (human MER) [nM]	IC50 (human TYRO3) [nM]	SMILES
100 to 1000	< 100	C[C@@H]1CCCN1C1(C)CCc2ccc(-c3cnc4[nH]nc(-c5ccc(S(=O)(=O)C6CC6)cc5)c4c3)cc2CC1 (stereo partly drawn) [Example 1, 3-(4-(Cyclopropylsulfonyl)phenyl)-5-(7-methyl-7-((R)-2-methylpyrrolidin-1-yl)-6,7,8,9-tetrahydro-5H-benzo[7]annulen-2-yl)-1H-pyrazolo[3,4-b]pyridine]
> 1000	> 1000	CC1(N2CCOCC2)CCc2ccc(-c3cnc4[nH]nc(-c5ccc(S(=O)(=O)C6CC6)cc5)c4c3)cc2CC1 (stereo not shown) [Example 2, 4-(2-{3-[4-(Cyclopropanesulfonyl)phenyl]-1H-pyrazolo[3,4-b]pyridin-5-yl}-7-methyl-6,7,8,9-tetrahydro-5H-benzo[7]annulen-7-yl)morpholine]
100 to 1000	< 100	CC1(N2CCC[C@@H]2CO)CCc2ccc(-c3cnc4[nH]nc(-c5ccc(S(=O)(=O)C6CC6)cc5)c4c3)cc2CC1 (stereo partly drawn) [Example 3, [(2R)-1-(2-{3-[4-(Cyclopropanesulfonyl)phenyl]-1H-pyrazolo[3,4-b]pyridin-5-yl}-7-methyl-6,7,8,9-tetrahydro-5H-benzo[7]annulen-7-yl)pyrrolidin-2-yl]methanol]
100 to 1000	100 to 1000	C[C@@H]1CCCN1C1CCc2ccc(-c3cnc4[nH]nc(-c5ccc(C6(O)CCOC6)c(Cl)c5)c4c3)cc2CC1 (stereo partly drawn) [Example 63, 3-[2-Chloro-4-(5-{7-[(2R)-2-methylpyrrolidin-1-yl]-6,7,8,9-tetrahydro-5H-benzo[7]annulen-2-yl}-1H-pyrazolo[3,4-b]pyridin-3-yl)phenyl]oxolan-3-ol]
> 1000	100 to 1000	C[C@@H]1CCCN1C1CCc2ccc(-c3cnc4[nH]nc(-c5ccc(C6(O)COC6)c(Cl)c5)c4c3)cc2CC1 (stereo partly drawn) [Example 64, 3-[2-Chloro-4-(5-{7-[(2R)-2-methylpyrrolidin-1-yl]-6,7,8,9-tetrahydro-5H-benzo[7]annulen-2-yl}-1H-pyrazolo[3,4-b]pyridin-3-yl)phenyl]oxetan-3-ol]
100 to 1000	100 to 1000	C[C@@H]1CCCN1C1CCc2ccc(-c3cnc4[nH]nc(-c5cnc(C(C)(C)O)c(Cl)c5)c4c3)cc2CC1 (stereo partly drawn) [Example 65, 2-[3-Chloro-5-(5-{7-[(2R)-2-methylpyrrolidin-1-yl]-6,7,8,9-tetrahydro-5H-benzo[7]annulen-2-yl}-1H-pyrazolo[3,4-b]pyridin-3-yl)pyridin-2-yl]propan-2-ol]
100 to 1000	< 100	COC1CCN(C(=O)c2ccc(-c3n[nH]c4ncc(-c5ccc6c(c5)CC[C@@H](N5CCCC5)CC6)cc34)cc2Cl)CC1 [Example 66, (S)-(2-Chloro-4-(5-(7-(pyrrolidin-1-yl)-6,7,8,9-tetrahydro-5H-benzo[7]annulen-2-yl)-1H-pyrazolo[3,4-b]pyridin-3-yl)phenyl)(4-methoxypiperidin-1-yl)methanone]
100 to 1000	< 100	COC1CCN(C(=O)c2ccc(-c3n[nH]c4ncc(-c5ccc6c(c5)CCC(C)(N5CCC[C@H]5C)CC6)cc34)cc2Cl)CC1 (stereo partly drawn) [Example 67, 1-[2-Chloro-4-(5-{7-methyl-7-[(2R)-2-methylpyrrolidin-1-yl]-6,7,8,9-tetrahydro-5H-benzo[7]annulen-2-yl}-1H-pyrazolo[3,4-b]pyridin-3-yl)benzoyl]-4-methoxypiperidine]
< 100	< 100	C[C@@H]1CCCN1C1(C)CCc2ccc(-c3cnc4[nH]nc(-c5ccc(C(N)=O)c(Cl)c5)c4c3)cc2CC1 (stereo partly drawn) [Example 68, 2-Chloro-4-(5-{7-methyl-7-[(2R)-2-methylpyrrolidin-1-yl]-6,7,8,9-tetrahydro-5H-benzo[7]annulen-2-yl}-1H-pyrazolo[3,4-b]pyridin-3-yl)benzamide]
100 to 1000	100 to 1000	C[C@@H]1CCCN1C1(C)CCc2ccc(-c3cnc4[nH]nc(-c5ccc(C(=O)NC6CC6)cc5)c4c3)cc2CC1 (stereo partly drawn) [Example 69, N-Cyclopropyl-4-(5-{7-methyl-7-[(2R)-2-methylpyrrolidin-1-yl]-6,7,8,9-tetrahydro-5H-benzo[7]annulen-2-yl}-1H-pyrazolo[3,4-b]pyridin-3-yl)benzamide]
> 1000	100 to 1000	CC(C)NC(=O)c1ccc(-c2n[nH]c3ncc(-c4ccc5c(c4)CCC(C)(N4CCC[C@H]4C)CC5)cc23)cc1 (stereo partly drawn) [Example 70, 4-(5-{7-Methyl-7-[(2R)-2-methylpyrrolidin-1-yl]-6,7,8,9-tetrahydro-5H-benzo[7]annulen-2-yl}-1H-pyrazolo[3,4-b]pyridin-3-yl)-N-(propan-2-yl)benzamide]
> 1000	100 to 1000	COCCNC(=O)c1ccc(-c2n[nH]c3ncc(-c4ccc5c(c4)CCC(C)(N4CCC[C@H]4C)CC5)cc23)cc1 (stereo partly drawn) [Example 72, N-(2-Methoxyethyl)-4-(5-{7-methyl-7-[(2R)-2-methylpyrrolidin-1-yl]-6,7,8,9-tetrahydro-5H-benzo[7]annulen-2-yl}-1H-pyrazolo[3,4-b]pyridin-3-yl)benzamide]
< 100	< 100	CCC1(N2CCC[C@H]2C)CCc2ccc(-c3cnc4[nH]nc(-c5ccc(C(N)=O)c(Cl)c5)c4c3)cc2CC1 (stereo partly drawn) [Example 73, 2-Chloro-4-(5-{7-ethyl-7-[(2R)-2-methylpyrrolidin-1-yl]-6,7,8,9-tetrahydro-5H-benzo[7]annulen-2-yl}-1H-pyrazolo[3,4-b]pyridin-3-yl)benzamide]
< 100	< 100	CCC1(N2CCC[C@@H]2CO)CCc2ccc(-c3cnc4[nH]nc(-c5ccc(C(N)=O)c(Cl)c5)c4c3)cc2CC1 (stereo partly drawn) [Example 74, 2-Chloro-4-(5-{7-ethyl-7-[(2R)-2-(hydroxymethyl)pyrrolidin-1-yl]-6,7,8,9-tetrahydro-5H-benzo[7]annulen-2-yl}-1H-pyrazolo[3,4-b]pyridin-3-yl)benzamide]
< 100	< 100	CCC1(N2CCC[C@H]2CO)CCc2ccc(-c3cnc4[nH]nc(-c5ccc(C(N)=O)c(Cl)c5)c4c3)cc2CC1 (stereo partly drawn) [Example 75, 2-Chloro-4-(5-{7-ethyl-7-[(2S)-2-(hydroxymethyl)pyrrolidin-1-yl]-6,7,8,9-tetrahydro-5H-benzo[7]annulen-2-yl}-1H-pyrazolo[3,4-b]pyridin-3-yl)benzamide]
100 to 1000	100 to 1000	C[C@@H]1CCCN1C1(C)CCc2ccc(-c3cnc4[nH]nc(-c5ccc(C(=O)N6CCC6)cc5)c4c3)cc2CC1 (stereo partly drawn) [Example 76, (2R)-1-(2-{3-[4-(Azetidine-1-carbonyl)phenyl]-1H-pyrazolo[3,4-b]pyridin-5-yl}-7-methyl-6,7,8,9-tetrahydro-5H-benzo[7]annulen-7-yl)-2-methylpyrrolidine]
< 100	< 100	NC(=O)c1ccc(-c2n[nH]c3ncc(-c4ccc5c(c4)CCC(N4CCCC4)CC5)cc23)cc1Cl (stereo not shown) [Example 77, 2-Chloro-4-(5-(7-(pyrrolidin-1-yl)-6,7,8,9-tetrahydro-5H-benzo[7]annulen-2-yl)-1H-pyrazolo[3,4-b]pyridin-3-yl)benzamide]
